Measurements from patent US9057726B2, “Neuropeptide Q as modulator of GPCR GALR2 and uses thereof” (Actelion Pharmaceuticals Ltd., priority 2010, dated 2015).
No end group written: not given here.

Legend:
GALR2 [1] = target: T1, GALR2 (Homo sapiens, UniProt O43603); test: FLIPR assay (intracellular calcium release); assay type: cell-based; parameters: expressed in transfected cells; host or cells: CHO-K1 (coexpressing Gα16); settings: CHO-K1 cells coexpressing Gα16 and human GALR2
T1 sequence (O43603 1-387): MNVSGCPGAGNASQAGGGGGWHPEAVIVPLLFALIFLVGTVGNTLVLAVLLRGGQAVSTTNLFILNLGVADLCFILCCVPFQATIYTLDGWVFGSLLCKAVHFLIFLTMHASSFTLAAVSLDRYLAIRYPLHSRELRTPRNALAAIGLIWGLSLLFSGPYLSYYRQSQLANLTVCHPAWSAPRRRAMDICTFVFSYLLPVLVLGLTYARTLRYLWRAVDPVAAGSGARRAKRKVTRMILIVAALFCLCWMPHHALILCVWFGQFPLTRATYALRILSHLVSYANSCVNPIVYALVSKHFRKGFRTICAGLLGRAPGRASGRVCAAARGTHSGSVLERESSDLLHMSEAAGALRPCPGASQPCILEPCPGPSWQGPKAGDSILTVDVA
Experimental: CHO-K1 cells coexpressing Gα16 and the recombinant human GALR2 receptor grown to mid-log phase in culture media are detached with PBS-EDTA, centrifuged, resuspended in cell-culture medium (HAM's F12 with HEPES, 10% (v/v) Fetal Calf Serum), and dispensed at 15′000 cells per well in 384-well FLIPR plates. After overnight incubation in a humidified 37° C./5% CO2 incubator, the medium was discarded and replaced with a dye solution (DMEM w/o Phenol Red with HEPES, Fluo4-AM and Probenecid). After an incubation of 1 hour in a humidified 37° C./5% CO2 incubator, the dye solution was replaced by Assay Medium (HBSS/DMEM w/o phenol red). […] The resulting emission of fluorescence is recorded using FLIPR tetra. For antagonist testing 100 μl of the Neuropeptide Q polypeptide at its EC80 is injected on the mix of cells and candidate modulator, following an incubation of 15 min after the first injection. The resulting emission of fluorescence is recorded using FLIPR tetra. Agonist activity of the candidate modulator is expressed as a percentage of the activity of the Neuropeptide Q polypeptide at its EC100 concentration. Antagonist activity of the candidate modulator is expressed as a percentage of the inhibition of Neuropeptide Q polypeptide activity at its EC80 concentration.

GALR2 [2] = target: T1, GALR2; settings: in vitro studies; cited from earlier work
stomach muscle = settings: stomach explants, dose-dependent contraction; cited from earlier work

| Substance | EC50 (GALR2 [1]) [nM] | further results |
| --- | --- | --- |
| NWTPQAMLYLKGPQG | 0.3 | – |
| galanin-(2-13)-Glu-His-(Pro)3-(Ala-Leu)2-Ala-amide [Peptide M871] | – | higher affinity for GALR2 than for GALR1 (GALR2 [2]): 32 fold |
| NWTPQAMLYLKGAQ [Neuropeptide Q, synthetic amidated Neuropeptide Q tested by Mirabeau et al] | – | EC50 (stomach muscle): 750 nM |

Further lines, with some results ahead:

| EC50 (GALR2 [1]) [nM] | Substance | further results |
| --- | --- | --- |
| 0.3 | NWTPQAMLYLKGAQP | – |
| 0.1 | NWTPQAMLYLKGAAG | – |
| 0.1 | PWTPQAMLYLKGAQG | – |
